One series deals with KYSE-30. In words: Antiproliferative activity against human KYSE-30 cells assessed as inhibition of cell growth incubated for 48 hrs by MTT assay. The settings on record: KYSE-30, 48 h. The format is functional, cell-based.
The subject of the next series is HCT-116. In words: Antiproliferative activity against human HCT-116 cells assessed as inhibition of cell growth incubated for 48 hrs by MTT assay. The following applies: HCT-116, 48 h. The format is functional, cell-based. In general terms: Tetrazolium dyes change colour on reduction, which living cells bring about.
Series [1] has as its system MGC-803. In words: Antiproliferative activity against human MGC-803 cells assessed as inhibition of cell growth incubated for 48 hrs by MTT assay. The class given is functional, cell-based. The settings on record: MGC-803, 48 h.
The nature of series [2]: Toxicity in BALB/c-nude mouse xenografted with human MGC-803 cells assessed as abnormal behaviour at 30 mg/kg/day, ip administered for 18 days. The format is organism-based. The following applies: in vivo, 432 h, time 18 day.
Series [3] can be described thus: Toxicity in BALB/c-nude mouse xenografted with human MGC-803 cells assessed as change in body weight at 30 mg/kg/day, ip administered for 18 days. The class given is organism-based. The following applies: in vivo, 432 h, time 18 day. Background: Xenograft models place foreign cells or tissue in a host animal.
The subject of series [4] is MGC-803. In words: Antitumor activity against human MGC-803 cells xenografted in BALB/c-nude mouse assessed as tumor weight at 30 mg/kg/day, ip administered for 18 days (reference value: 0.656 g). The following applies: time 18 day. The class given is functional.
Series [5] concerns MGC-803. In words: Antitumor activity against human MGC-803 cells xenografted in BALB/c-nude mouse assessed as tumor growth inhibition at 30 mg/kg/day, ip administered for 18 days relative to control. The settings on record: MGC-803, 432 h, time 18 day, read-out: TGI. The class given is functional.
The subject of series [6] is MGC-803. In words: Antitumor activity against human MGC-803 cells xenografted in BALB/c-nude mouse assessed as tumor growth rate at 30 mg/kg/day, ip administered for 18 days relative to control. The class given is functional. The settings on record: time 18 day.

The term IC50 denotes the point on the concentration scale where inhibition reaches its midpoint.

The structures appear in SMILES notation. A value given as a limit tells only on which side of the number the result lay.

As to `COc1ccc(N2CCN(c3cc(=O)oc4ccccc34)CC2)cc1`, the IC50 was > 20000 nM with KYSE-30, 18700 nM in the series with HCT-116 and 18100 nM in the series with MGC-803 [1].
In the case of `COc1ccc(/C=C\c2cc(OC)c(OC)c(OC)c2)cc1O` [COMBRETASTATIN A4], the Activity entry in series [2] is “Non-Toxic”; in series [3], “Non-Toxic”; in the series with MGC-803 [4], 0.272 g; in the series on MGC-803 [6], 38%. Moreover, the inhibition in vivo at 30 mg/kg/day in the series on MGC-803 [5] turned out to be 58.5%.
Turning to `O=c1cc(N2CCCc3cc(O)ccc32)c2ccccc2o1`, the values for the IC50 with KYSE-30, in the series with HCT-116 and in the series on MGC-803 [1] were 870 nM, 910 nM and 880 nM, respectively.
The corresponding values for `O=c1cc(N2CCCc3ccccc32)c2ccccc2o1` are 680 nM, 730 nM and 670 nM.
On the same counts, the results for `O=c1cc(N2CCCc3cc(Br)ccc32)c2ccccc2o1` are 1520 nM, 1470 nM and 1190 nM.
As for `Cc1ccc2c(c1)CCN2c1cc(=O)oc2ccccc12`, the values for the IC50 with KYSE-30, in the series with HCT-116 and in the series with MGC-803 [1] were 1970 nM, 2280 nM and 2090 nM, respectively.
The corresponding values for `COc1ccc2c(c1)NC(=O)CN2c1cc(=O)oc2ccccc12` are 34 nM, 38 nM and 12 nM.
On the same counts, the results for `COC1CCN(c2cc(=O)oc3ccccc23)CC1` are > 20000 nM, > 20000 nM and > 20000 nM.
The corresponding values for `O=C(c1cc2ccccc2oc1=O)N1CCc2cc(Br)ccc21` are 17100 nM, 14200 nM and 13100 nM.
For the molecule `CC1CCN(c2cc(=O)oc3ccccc23)CC1`, the half-maximal inhibitory concentration (IC50) in the series on KYSE-30, with HCT-116 and in the series with MGC-803 [1] was > 20000 nM each time.
Turning to `O=c1cc(N2CCOCC2)c2ccccc2o1`, the IC50 with KYSE-30, in the series on HCT-116 and in the series on MGC-803 [1] was > 20000 nM in each case.
Take `COc1ccc2c(c1)CCCN2C(=O)c1cc2ccccc2oc1=O`: the figures for the IC50 in the series with KYSE-30, with HCT-116 and with MGC-803 [1] were 7190 nM, 5580 nM and 4140 nM, respectively.
On the same counts, the results for `O=c1cc(N2CCc3ccccc32)c2ccccc2o1` are 2180 nM, 2980 nM and 1290 nM.
Regarding `CN1CCN(c2cc(=O)oc3ccccc23)CC1`, the IC50 in the series on KYSE-30, in the series with HCT-116 and in the series with MGC-803 [1] was > 20000 nM each time.
In the case of `O=C(c1cc2ccccc2oc1=O)N1CCCc2cc(Cl)ccc21`, the results for the IC50 in the series with KYSE-30, in the series on HCT-116 and in the series on MGC-803 [1] were 13200 nM, 11900 nM and 9990 nM, respectively.
The corresponding values for `O=c1cc(N2CCCC2)c2ccccc2o1` are > 20000 nM, > 20000 nM and > 20000 nM.
On the same counts, the results for `COc1cc2c(c(OC)c1OC)-c1ccc(OC)c(=O)cc1[C@@H](NC(C)=O)CC2` [COLCHICINE] are 68 nM, 55 nM and 41 nM.
The corresponding values for `COc1ccc2c(c1)CCN2C(=O)c1cc2ccccc2oc1=O` are 9080 nM, 9440 nM and 7410 nM.
Take `Cc1ccc2c(c1)CCCN2c1cc(=O)oc2ccccc12`: the concentration for half-maximal inhibition (IC50) in the series on KYSE-30 was determined as 400 nM; in the series on HCT-116, 450 nM; in the series with MGC-803 [1] it was 420 nM.
On the same counts, the results for `COc1ccc2c(c1)CCN2c1cc(=O)oc2ccccc12` are 150 nM, 160 nM and 120 nM.

For the origin of these results see ChEMBL document CHEMBL5518178 (Eur J Med Chem, 2024).
